Measured values published in patent US20150174137A1, “COMPOSITIONS FOR TREATING MICROBIAL INFECTIONS” (ALCON RESEARCH, LTD., priority 2010, published 2015).
In brackets after ≈: the same amount, converted by molar mass. Blank lines part the entries; values can stand above or below the compound they belong to.

What was measured:
[1] = Solubility of finafloxacin in three magnesium chloride-containing solutions at various pH; type: physicochemical; details: for solubility: aqueous with cosolvent or surfactant or cyclodextrin
[2] = pH 7.4 in 0.1M phosphate buffer; cited from earlier work
[3] = Solubility studies of fluoroquinolones (0.3%) with ZnCl2, MgCl2 or CaCl2; details: quinolone 0.3%
[4] = Solubility studies of finafloxacin monohydrochloride in aqueous solution with various salts; type: physicochemical
Text: TABLE 1 below summarizes the results of solubility studies using finafloxacin monohydrochloride in aqueous solution with various salts at different concentrations. […] In particular, magnesium salts generated clear, colorless solutions at slightly acidic, physiologically-compatible pH ranges.

[5] = TABLE 3A magnesium chloride-containing solution, final pH 5.73
[6] = TABLE 3A magnesium chloride-containing solution, final pH 6.23
[7] = TABLE 3A magnesium chloride-containing solution, final pH 6.58
[8] = TABLE 3A magnesium chloride-containing solution, final pH 7.12
[9] = TABLE 3A magnesium chloride-containing solution, final pH 7.55
[10] = TABLE 3B magnesium chloride-containing solution, pH 6.08
[11] = TABLE 3B magnesium chloride-containing solution, pH 6.15
[12] = TABLE 3B magnesium chloride-containing solution, pH 6.69
[13] = TABLE 3B magnesium chloride-containing solution, pH 7.29
[14] = TABLE 3B magnesium chloride-containing solution, pH 7.54
[15] = TABLE 3C magnesium chloride-containing solution, pH 5.22
[16] = TABLE 3C magnesium chloride-containing solution, pH 6.19
[17] = TABLE 3C magnesium chloride-containing solution, pH 6.65
[18] = TABLE 3C magnesium chloride-containing solution, pH 7.16
[19] = TABLE 3C magnesium chloride-containing solution, pH 7.67
[20] = 0.05% MgCl2 5.27 mM + 0.05% ZnCl2 3.67 mM
[21] = 0.05% MgCl2 5.27 mM + 0.1% ZnCl2 7.34 mM
[22] = 0.1% MgCl2 10.5 mM + 0.05% ZnCl2 3.67 mM
[23] = 0.1% MgCl2 10.5 mM + 0.1% ZnCl2 7.3 mM
[24] = AlCl3 13.5 mM, Conc. (%) 0.180%
[25] = CaGluconate 17.5 mM, Conc. (%) 0.75%
[26] = Mg(CH3COO)2 1.3 mM, Conc. (%) 0.019%
[27] = Mg(CH3COO)2 6.7 mM, Conc. (%) 0.095%
[28] = Mg(CH3COO)2 13.5 mM, Conc. (%) 0.19%
[29] = MgCl2 2.45 mM, Conc. (%) 0.023%
[30] = ZnCl2 13.5 mM, Conc. (%) 0.184%

Solubility of finafloxacin [1, 5]: 0.404 w/v %
Solubility of finafloxacin [1, 6]: 0.727 w/v %
Solubility of finafloxacin [1, 7]: 0.638 w/v %
Solubility of finafloxacin [1, 8]: 0.944 w/v %
Solubility of finafloxacin [1, 9]: 1.244 w/v %
Solubility of finafloxacin [1, 10]: 0.316 w/v %
Solubility of finafloxacin [1, 11]: 0.355 w/v %
Solubility of finafloxacin [1, 12]: 0.628 w/v %
Solubility of finafloxacin [1, 13]: 0.915 w/v %
Solubility of finafloxacin [1, 14]: 1.140 w/v %
Solubility of finafloxacin [1, 15]: 0.130 w/v %
Solubility of finafloxacin [1, 16]: 0.216 w/v %
Solubility of finafloxacin [1, 17]: 0.346 w/v %
Solubility of finafloxacin [1, 18]: 0.501 w/v %
Solubility of finafloxacin [1, 19]: 0.921 w/v %
SMILES: Cl.N#Cc1c(N2C[C@@H]3NCCO[C@H]3C2)c(F)cc2c(=O)c(C(=O)O)cn(C3CC3)c12 [Finafloxacin HCl, finafloxacin monohydrochloride]

C.C.S. (clear colorless solution) pH Range ([3]; CaCl2 10.0 mM, Conc. (w/v %) 0.08%): 7.31-7.55
C.C.S. (clear colorless solution) pH Range ([3]; MgCl2 10.0 mM, Conc. (w/v %) 0.09%): 6.97-7.52
C.C.S. (clear colorless solution) pH Range ([3]; ZnCl2 10.0 mM, Conc. (w/v %) 0.13%): 6.61-7.31
SMILES: COc1c(N2CCNC(C)C2)c(F)cc2c(=O)c(C(=O)O)cn(C3CC3)c12 (stereo not shown) [GATIFLOXACIN, gatifloxacin]
literature-reported aqueous solubility [2]: 0.21 w/v %

C.C.S. (clear colorless solution) pH Range [4, 20]: 4.86-5.87
Observation [4, 20]: C.C.S
C.C.S. (clear colorless solution) pH Range [4, 21]: 4.62-5.86
Observation [4, 21]: C.C.S
C.C.S. (clear colorless solution) pH Range [4, 22]: 5.01-5.75
Observation [4, 22]: C.C.S
C.C.S. (clear colorless solution) pH Range [4, 23]: 4.68-5.88
Observation [4, 23]: C.C.S
C.C.S. (clear colorless solution) pH Range ([4]; AlCl3 1.3 mM, Conc. (%) 0.018%): Not Formed
Observation ([4]; AlCl3 1.3 mM, Conc. (%) 0.018%): Suspension at pH 3.7-7.4
C.C.S. (clear colorless solution) pH Range ([4]; AlCl3 6.7 mM, Conc. (%) 0.09%): 2.83-7.46
Observation ([4]; AlCl3 6.7 mM, Conc. (%) 0.09%): Pale-yellow→at pH 7.58
C.C.S. (clear colorless solution) pH Range [4, 24]: 2.50-7.24
Observation [4, 24]: Pale-yellow → at pH 7.41
C.C.S. (clear colorless solution) pH Range ([4]; CaCl2 1.3 mM, Conc. (%) 0.015%): Not Formed
Observation ([4]; CaCl2 1.3 mM, Conc. (%) 0.015%): Suspension at pH 3.7
C.C.S. (clear colorless solution) pH Range ([4]; CaCl2 6.7 mM, Conc. (%) 0.075%): Not Formed
Observation ([4]; CaCl2 6.7 mM, Conc. (%) 0.075%): Suspension at pH 3.7
C.C.S. (clear colorless solution) pH Range ([4]; CaCl2 13.5 mM, Conc. (%) 0.15%): 6.45
Observation ([4]; CaCl2 13.5 mM, Conc. (%) 0.15%): C.C.S
C.C.S. (clear colorless solution) pH Range ([4]; CaCl2 20.0 mM, Conc. (%) 0.22%): 6.29-6.39
Observation ([4]; CaCl2 20.0 mM, Conc. (%) 0.22%): C.C.S
C.C.S. (clear colorless solution) pH Range [4, 25]: Not Formed
Observation [4, 25]: Suspension at pH 3.7
C.C.S. (clear colorless solution) pH Range ([4]; CuCl2 1.3 mM, Conc. (%) 0.018%): Not Formed
Observation ([4]; CuCl2 1.3 mM, Conc. (%) 0.018%): Suspension at pH 3.7-7.4
C.C.S. (clear colorless solution) pH Range ([4]; CuCl2 6.7 mM, Conc. (%) 0.09%): 5.14-7.26
Observation ([4]; CuCl2 6.7 mM, Conc. (%) 0.09%): Light blue coloration
C.C.S. (clear colorless solution) pH Range ([4]; CuCl2 13.5 mM, Conc. (%) 0.18%): 5.77-6.11
Observation ([4]; CuCl2 13.5 mM, Conc. (%) 0.18%): Light blue coloration
C.C.S. (clear colorless solution) pH Range ([4]; KCl 93 mM, Conc. (%) 0.7%): Not Formed
Observation ([4]; KCl 93 mM, Conc. (%) 0.7%): Suspension at pH 3.7-7.4
C.C.S. (clear colorless solution) pH Range [4, 26]: Not Formed
Observation [4, 26]: Suspension at pH 3.7-7.4
C.C.S. (clear colorless solution) pH Range [4, 27]: 6.05-7.57
Observation [4, 27]: C.C.S.
C.C.S. (clear colorless solution) pH Range [4, 28]: 5.21-8.51
Observation [4, 28]: C.C.S.
C.C.S. (clear colorless solution) pH Range ([4]; MgCl2 1.3 mM, Conc. (%) 0.012%): Not Formed
Observation ([4]; MgCl2 1.3 mM, Conc. (%) 0.012%): Suspension at pH 3.7-7.4
C.C.S. (clear colorless solution) pH Range [4, 29]: Not Formed
Observation [4, 29]: Suspension at pH 3.7-7.4
C.C.S. (clear colorless solution) pH Range ([4]; MgCl2 4.91 mM, Conc. (%) […]): 6.68-7.65
Observation ([4]; MgCl2 4.91 mM, Conc. (%) […]): C.C.S
C.C.S. (clear colorless solution) pH Range ([4]; MgCl2 6.7 mM, Conc. (%) 0.064%): 6.00-9.84
Observation ([4]; MgCl2 6.7 mM, Conc. (%) 0.064%): C.C.S
C.C.S. (clear colorless solution) pH Range ([4]; MgCl2 13.5 mM, Conc. (%) 0.12%): 5.26-9.61
Observation ([4]; MgCl2 13.5 mM, Conc. (%) 0.12%): C.C.S
C.C.S. (clear colorless solution) pH Range ([4]; MgSO4 1.3 mM, Conc. (%) 0.016%): Not Formed
Observation ([4]; MgSO4 1.3 mM, Conc. (%) 0.016%): Suspension at pH 3.7-7.4
C.C.S. (clear colorless solution) pH Range ([4]; MgSO4 6.7 mM, Conc. (%) 0.08%): 6.36-9.23
Observation ([4]; MgSO4 6.7 mM, Conc. (%) 0.08%): C.C.S
C.C.S. (clear colorless solution) pH Range ([4]; MgSO4 13.5 mM, Conc. (%) 0.16%): 6.29-7.44
Observation ([4]; MgSO4 13.5 mM, Conc. (%) 0.16%): C.C.S
C.C.S. (clear colorless solution) pH Range ([4]; NaCl 13.5 mM, Conc. (%) 0.076%): Not Formed
Observation ([4]; NaCl 13.5 mM, Conc. (%) 0.076%): Suspension at pH 3.7-7.4
C.C.S. (clear colorless solution) pH Range ([4]; NaCl 27 mM, Conc. (%) 0.15%): Not Formed
Observation ([4]; NaCl 27 mM, Conc. (%) 0.15%): Suspension at pH 3.7-7.4
C.C.S. (clear colorless solution) pH Range ([4]; NaCl 120 mM, Conc. (%) 0.79%): Not Formed
Observation ([4]; NaCl 120 mM, Conc. (%) 0.79%): Suspension at pH 3.7-7.4
C.C.S. (clear colorless solution) pH Range ([4]; NaSO4 21.3 mM, Conc. (%) 0.3%): Not Formed
Observation ([4]; NaSO4 21.3 mM, Conc. (%) 0.3%): Suspension at pH 3.7-7.4
C.C.S. (clear colorless solution) pH Range ([4]; ZnCl2 1.3 mM, Conc. (%) 0.018%): Not Formed
Observation ([4]; ZnCl2 1.3 mM, Conc. (%) 0.018%): Suspension at pH 3.7-7.4
C.C.S. (clear colorless solution) pH Range ([4]; ZnCl2 6.7 mM, Conc. (%) 0.09%): 4.90-5.47
Observation ([4]; ZnCl2 6.7 mM, Conc. (%) 0.09%): C.C.S
C.C.S. (clear colorless solution) pH Range [4, 30]: 4.50-5.55
Observation [4, 30]: C.C.S
C.C.S. (clear colorless solution) pH Range ([4]; ZnCl2 20.0 mM, Conc. (%) 0.27%): 5.06-5.87
Observation ([4]; ZnCl2 20.0 mM, Conc. (%) 0.27%): C.C.S
C.C.S. (clear colorless solution) pH Range ([4]; ZnSO4 13.5 mM, Conc. (%) 0.22%): 5.65
Observation ([4]; ZnSO4 13.5 mM, Conc. (%) 0.22%): C.C.S
solubility [1, 5]: 3700 µg/mL (≈ 9.29 mM)
solubility [1, 6]: 6660 µg/mL (≈ 16.7 mM)
solubility [1, 7]: 5850 µg/mL (≈ 14.7 mM)
solubility [1, 8]: 8650 µg/mL (≈ 21.7 mM)
solubility [1, 9]: 11400 µg/mL (≈ 28.6 mM)
solubility [1, 10]: 2900 µg/mL (≈ 7.28 mM)
solubility [1, 11]: 3250 µg/mL (≈ 8.16 mM)
solubility [1, 12]: 5760 µg/mL (≈ 14.5 mM)
solubility [1, 13]: 8390 µg/mL (≈ 21.1 mM)
solubility [1, 14]: 10400 µg/mL (≈ 26.2 mM)
solubility [1, 15]: 1190 µg/mL (≈ 2.99 mM)
solubility [1, 16]: 1980 µg/mL (≈ 4.97 mM)
solubility [1, 17]: 3170 µg/mL (≈ 7.96 mM)
solubility [1, 18]: 4590 µg/mL (≈ 11.5 mM)
solubility [1, 19]: 8440 µg/mL (≈ 21.2 mM)
SMILES: N#Cc1c(N2C[C@@H]3NCCO[C@H]3C2)c(F)cc2c(=O)c(C(=O)O)cn(C3CC3)c12 [Finafloxacin, 8-cyano-1-cyclopropyl-6-fluoro-7-[(4aS,7aS)-hexahydropyrrolo[3,4-b]-1,4-oxazin-6(2H)-yl]-1,4-dihydro-4-oxo-3-quinoline carboxylic acid]
